Measurements as given in patent publication US20230173018A1, “CASPOFUNGIN DERIVATIVES AND ASSAYS FOR EVALUATING ANTIFUNGAL TREATMENT EFFICACY” (priority 2020, published 2023).
≈ marks a conversion by molar mass, not a printed value. Where two headings read alike, the source gives them in different places.

Tests used:
Assay type in all cases: cell-based
[1] = test system: C. glabrata T-982 (11-181); assay: MIC, broth double dilution; settings: strain no. 46, T-982 (11-181), clinical isolate
Source text: (§1) The antifungal activities of compounds 1a, 1 and 2 (collectively: caspofungin derivatives) were compared to that of caspofungin and CSF-BOD using a panel of 49 C. albicans and C. glabrata strains (Tables 1 and 2). The panel included ATCC strains and clinical isolates as well a collection of caspofungin-responsive strains and their corresponding isogenic caspofungin-resistant derivatives, constructed by introducing point mutations within and near the defined hotspots in the FKS1 and/or FKS2 genes of the GS complex. Minimal inhibitory concentration (MIC) values for all strains were determined using the broth double dilution method and are summarized in FIG. 2 and Table 2. […] The clinical breakpoints (threshold) for caspofungin-resistance in C. albicans and C. glabrata are 1 μg/mL and 0.5 μg/mL, respectively.

C. albicans SN152 = assay: MIC, broth double dilution
Source text: as §1

[2] = test system: C. glabrata T-190 (11-304); assay: MIC, broth double dilution; settings: strain no. 42, T-190 (11-304), clinical isolate
Source text: as §1

C. glabrata ATCC 15126 = assay: MIC, broth double dilution; settings: strain no. 41, C. glabrata ATCC 15126
Source text: as §1

C. albicans ATCC 10231 = assay: MIC, broth double dilution; settings: strain no. 11, C. albicans ATCC 10231
Source text: as §1

C. albicans BWP17 = assay: MIC, broth double dilution
Source text: as §1

C. glabrata TGL00263 = assay: microbe, parasite or virus in culture; settings: strain no. 28, TGL00263, parental CST78, FKS mutant
Source text: as §1

[3] = test system: C. glabrata T-985 (11-076); assay: microbe, parasite or virus in culture
Source text: as §1

C. glabrata TGL00065 = assay: microbe, parasite or virus in culture; settings: strain no. 27, TGL00065, FKS mutant
Source text: as §1

[4] = test system: C. albicans T-2077 (DP-205); assay: microbe, parasite or virus in culture; settings: strain no. 15, T-2077 (DP-205), clinical isolate, FKS1 HS1-S645P mutation
Source text: as §1

C. glabrata TGL00091 = assay: microbe, parasite or virus in culture; settings: strain no. 35, TGL00091, FKS mutant
Source text: as §1

C. glabrata TGL00258 = assay: microbe, parasite or virus in culture; settings: strain no. 25, TGL00258, parental CST34, FKS mutant
Source text: as §1

[5] = test system: C. albicans DPL1016 (DP-A15-10); assay: microbe, parasite or virus in culture; settings: strain no. 3, DPL1016 (DP-A15-10), parental SC5314, FKS1 mutant HS1-S645P
Source text: as §1

[6] = test system: C. albicans T-2076 (DP-194); assay: microbe, parasite or virus in culture; settings: strain no. 13, T-2076 (DP-194), clinical isolate, FKS1 HS1-S645F, HS2-R1361R/H mutation
Source text: as §1

C. glabrata TGL00054 = assay: microbe, parasite or virus in culture; settings: strain no. 19, TGL00054, parental CST109, FKS2 mutant
Source text: as §1

C. glabrata TGL00253 = assay: microbe, parasite or virus in culture; settings: strain no. 20, TGL00253, parental CST109, FKS2 mutant
Source text: as §1

C. glabrata TGL00291 = assay: microbe, parasite or virus in culture; settings: strain no. 36, TGL00291, parental BG2, FKS mutant
Source text: as §1

C. albicans SN95 = assay: microbe, parasite or virus in culture
Source text: as §1

[7] = test system: C. albicans T-2068 (DP-C42); assay: microbe, parasite or virus in culture; settings: strain no. 4, T-2068 (DP-C42), parental SC5314, FKS1 HS1-F641S mutation
Source text: as §1

C. glabrata TGL00264 = assay: microbe, parasite or virus in culture; settings: strain no. 29, TGL00264, parental CST78, FKS mutant
Source text: as §1

C. albicans CG72 = assay: microbe, parasite or virus in culture
Source text: as §1

C. glabrata TGL00265 = assay: microbe, parasite or virus in culture; settings: strain no. 30, TGL00265, parental CST78, FKS mutant
Source text: as §1

C. glabrata TGL00256 = assay: microbe, parasite or virus in culture; settings: strain no. 24, TGL00256, parental CST34, FKS mutant
Source text: as §1

C. glabrata TGL00275 = assay: microbe, parasite or virus in culture; settings: strain no. 32, TGL00275, FKS mutant
Source text: as §1

[8] = test system: C. albicans T-2069 (DP-85); assay: microbe, parasite or virus in culture; settings: strain no. 14, T-2069 (DP-85), clinical isolate, FKS1 HS1-S645F mutation
Source text: as §1

[9] = test system: C. albicans T-2074 (DP-122); assay: microbe, parasite or virus in culture; settings: strain no. 12, T-2074 (DP-122), clinical isolate, FKS1 HS1-P649H mutation
Source text: as §1

C. glabrata DPL1086 = assay: microbe, parasite or virus in culture; settings: strain no. 17, DPL1086, parental ATCC 90030, FKS1 mutant HS1-S629P
Source text: as §1

[10] = test system: C. albicans DPL1015 (DP-A15); assay: microbe, parasite or virus in culture; settings: strain no. 2, DPL1015 (DP-A15), parental SC5314, FKS1 mutant HS1-S645S/P
Source text: as §1

C. glabrata TGL00294 = assay: microbe, parasite or virus in culture; settings: strain no. 38, TGL00294, parental BG2, FKS mutant
Source text: as §1

C. glabrata CST78 = assay: microbe, parasite or virus in culture
Source text: as §1

C. glabrata TGL00056 = assay: microbe, parasite or virus in culture; settings: strain no. 22, TGL00056, parental CST34, FKS mutant
Source text: as §1

C. glabrata TGL00293 = assay: microbe, parasite or virus in culture; settings: strain no. 37, TGL00293, parental BG2, FKS mutant
Source text: as §1

C. glabrata TGL00107 = assay: microbe, parasite or virus in culture; settings: strain no. 23, TGL00107, parental CST34, FKS mutant
Source text: as §1

C. glabrata TGL00277 = assay: microbe, parasite or virus in culture; settings: strain no. 33, TGL00277, parental EF1620, FKS mutant
Source text: as §1

[11] = strain no. 5, C. albicans SN152
[12] = strain no. 9, BWP17, parental RM1000
[13] = strain no. 49, T-985 (11-076), clinical isolate
[14] = strain no. 8, SN95, parental RM1000
[15] = strain no. 7, CG72, parental CAM, pKE1:GFP-YPT72
[16] = strain no. 26, C. glabrata CST78

| SMILES | MIC [1] [µg/mL] | MIC [2] [µg/mL] | MIC (C. glabrata ATCC 15126) [µg/mL] | MIC (C. albicans ATCC 10231) [µg/mL] | MIC (C. glabrata TGL00263) [µg/mL] | MIC (C. glabrata TGL00065) [µg/mL] | MIC [4] [µg/mL] | MIC (C. glabrata TGL00091) [µg/mL] | MIC (C. glabrata TGL00258) [µg/mL] | MIC [5] [µg/mL] | MIC [6] [µg/mL] | MIC (C. glabrata TGL00054) [µg/mL] | MIC (C. glabrata TGL00253) [µg/mL] | MIC (C. glabrata TGL00291) [µg/mL] | MIC [7] [µg/mL] | MIC (C. glabrata TGL00264) [µg/mL] | MIC (C. glabrata TGL00265) [µg/mL] | MIC (C. glabrata TGL00256) [µg/mL] | MIC (C. glabrata TGL00275) [µg/mL] | MIC [8] [µg/mL] | other results |
| --- | --- | --- | --- | --- | --- | --- | --- | --- | --- | --- | --- | --- | --- | --- | --- | --- | --- | --- | --- | --- | --- |
| C#CCOc1ccc([C@H](O)[C@@H](O)[C@@H]2NC(=O)[C@@H]3C[C@@H](O)CN3C(=O)[C@H]([C@@H](C)O)NC(=O)[C@@H](NC(=O)CCCCCCCC[C@@H](C)C[C@@H](C)CC)C[C@@H](O)[C@@H](NCCN)NC(=O)[C@@H]3[C@@H](O)CCN3C(=O)[C@H]([C@H](O)CCN)NC2=O)cc1 [Compound 1a] | 0.25 (≈ 0.221 µM) | 0.5 (≈ 0.442 µM) | 1 (≈ 0.884 µM) | 0.125 (≈ 0.11 µM) | >64 | >64 | >64 | >64 | >64 | 16 (≈ 14.1 µM) | 32 (≈ 28.3 µM) | >64 | >64 | >64 | 16 (≈ 14.1 µM) | >64 | >64 | 2 (≈ 1.77 µM) | 16 (≈ 14.1 µM) | 32 (≈ 28.3 µM) | MIC (C. albicans SN152; [11]): 0.063 µg/mL (≈ 0.0557 µM); MIC (C. albicans BWP17; [12]): 0.063 µg/mL (≈ 0.0557 µM); MIC [3, 13]: 0.5 µg/mL (≈ 0.442 µM); MIC (C. albicans SN95; [14]): 0.125 µg/mL (≈ 0.11 µM); MIC (C. albicans CG72; [15]): 0.063 µg/mL (≈ 0.0557 µM); MIC [9]: 16 µg/mL (≈ 14.1 µM); MIC (C. glabrata DPL1086): 4 µg/mL (≈ 3.54 µM); MIC [10]: 8 µg/mL (≈ 7.07 µM); MIC (C. glabrata TGL00294): >64 µg/mL; MIC (C. glabrata CST78; [16]): 0.5 µg/mL (≈ 0.442 µM); MIC (C. glabrata TGL00056): >64 µg/mL; MIC (C. glabrata TGL00293): >64 µg/mL; MIC (C. glabrata TGL00107): >64 µg/mL; MIC (C. glabrata TGL00277): >64 µg/mL |
| CC[C@H](C)C[C@H](C)CCCCCCCCC(=O)N[C@H]1C[C@@H](O)[C@@H](NCCN)NC(=O)[C@@H]2[C@@H](O)CCN2C(=O)[C@H]([C@H](O)CCN)NC(=O)[C@H]([C@H](O)[C@@H](O)c2ccc(OCc3cn(CCCNc4ccc([N+](=O)[O-])c5nonc45)nn3)cc2)NC(=O)[C@@H]2C[C@@H](O)CN2C(=O)[C@H]([C@@H](C)O)NC1=O [Compound 2] | 2 (≈ 1.43 µM) | 2 (≈ 1.43 µM) | 4 (≈ 2.87 µM) | 2 (≈ 1.43 µM) | >64 | >64 | >64 | >64 | >64 | >64 | >64 | >64 | >64 | >64 | 64 (≈ 45.9 µM) | >64 | >64 | 64 (≈ 45.9 µM) | >64 | >64 | MIC (C. albicans SN152; [11]): 1 µg/mL (≈ 0.717 µM); MIC (C. albicans BWP17; [12]): 1 µg/mL (≈ 0.717 µM); MIC [3, 13]: 4 µg/mL (≈ 2.87 µM); MIC (C. albicans SN95; [14]): 2 µg/mL (≈ 1.43 µM); MIC (C. albicans CG72; [15]): 1 µg/mL (≈ 0.717 µM); MIC [9]: 64 µg/mL (≈ 45.9 µM); MIC (C. glabrata DPL1086): 32 µg/mL (≈ 22.9 µM); MIC [10]: 32 µg/mL (≈ 22.9 µM); MIC (C. glabrata TGL00294): >64 µg/mL; MIC (C. glabrata CST78; [16]): 4 µg/mL (≈ 2.87 µM); MIC (C. glabrata TGL00056): >64 µg/mL; MIC (C. glabrata TGL00293): >64 µg/mL; MIC (C. glabrata TGL00107): >64 µg/mL; MIC (C. glabrata TGL00277): >64 µg/mL |
| CN(C)c1ccc2c(-c3ccc(C(=O)NCCCN=[N+]=[N-])cc3C(=O)[O-])c3ccc(=[N+](C)C)cc-3oc2c1 [Compound 5-TMR-azide] | >64 | >64 | >64 | >64 | >64 | >64 | >64 | >64 | >64 | >64 | >64 | >64 | >64 | >64 | >64 | >64 | >64 | >64 | >64 | >64 | MIC (C. albicans SN152): >64 µg/mL; MIC (C. albicans BWP17): >64 µg/mL; MIC [3]: >64 µg/mL; MIC (C. albicans SN95): >64 µg/mL; MIC (C. albicans CG72): >64 µg/mL; MIC [9]: >64 µg/mL; MIC (C. glabrata DPL1086): >64 µg/mL; MIC [10]: >64 µg/mL; MIC (C. glabrata TGL00294): >64 µg/mL; MIC (C. glabrata CST78): >64 µg/mL; MIC (C. glabrata TGL00056): >64 µg/mL; MIC (C. glabrata TGL00293): >64 µg/mL; MIC (C. glabrata TGL00107): >64 µg/mL; MIC (C. glabrata TGL00277): >64 µg/mL |
